Measurements as given in patent publication US9809537B2, “Glycosidase inhibitors and uses thereof” (Alectos Therapeutics Inc., priority 2012, dated 2017).

Assay: Apparent permeability (Papp), bi-directional transport
Format: in vitro ADME
Settings: pig, LLC-PK1, t=3 h, average of A to B and B to A, read-out: Papp LLC-PK1 cells
Description: Assay for Determination of Apparent Permeability (Papp)
Bi-directional transport is evaluated in LLC-PK1 cells in order to determine apparent permeability (Papp). LLC-PK1 cells can form a tight monolayer and therefore can be used to assess vectorial transport of compounds from basolateral to apical (B→A) and from apical to basolateral (A→B).
To determine Papp, LLC-PK1 cells are cultured in 96-well transwell culture plates (Millipore). Solutions containing the test compounds (1 μM) are prepared in Hank's Balanced Salt Solution with 10 mM HEPES. Substrate solution (150 μL) is added to either the apical (A) or the basolateral (B) compartment of the culture plate, and buffer (150 μL) is added to the compartment opposite to that containing the compound. At t=3 h, 50 μL samples are removed from both sides of monolayers dosed with test compound and placed in 96 well plates, scintillant (200 μL) or internal standard (100 μL labetolol 1 μM) is added to the samples and concentration is determined by liquid scintillation counting in a MicroBeta Wallac Trilux scintillation counter (Perkin Elmer Life Sciences, Boston, Mass.) or by LCMS/MS (Applied Biosystems SCIEX API 5000 triple quadruple mass spectrometer). [^3H]Verapamil (1 μM) is used as the positive control. The experiment is performed in triplicate.
The apparent permeability, Papp, is calculated by the following formula for samples taken at t=3 h:
[formula] Where: Volume of Receptor Chamber is 0.15 mL; Area of membrane is 0.11 cm^2; the Initial Concentration is the sum of the concentration measured in the donor plus concentration measured in receiver compartments at t=3 h; A in Concentration is concentration in the receiver compartment at 3 h; and A in Time is the incubation time (3×60×60=10800 s). Papp is expressed as 10^−6 cm/s. The Papp (LLC-PK1 cells) are the average of the Papp for transport from A to B and Papp for transport from B to A at t=3 h: […]

Q: For `CC(=O)NC[C@@H]1[C@@H](O)[C@H](O)[C@@H](CO)N1CCCc1ccc(-c2ccccc2)cc1` [Example 3, N-(((2R,3R,4R,5R)-1-(3-([1,1′-biphenyl]-4-yl)propyl)-3,4-dihydroxy-5-(hydroxymethyl)pyrrolidin-2-yl)methyl)acetamide], which Papp at 3 h, 1 μM is on record?
A: 5 ×10⁻⁶ cm/s
